Reference: PubChem BioAssay AID1963871 (Molecular Pharmacology Branch, DTP, NCI, 2024)

Tested on: KRAS-mutant PDC multicell tumor spheroid viability
Experiment: Anticancer human tumor 521955-158-R2-J5-PDC patient-derived pancreatic carcinoma cell line growth inhibition [KRAS2]
Details: for IC50: curve of first compound; for viability, T/C: stronger effect = lower value
Summary of the method: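 KRAS-mutant tumor cells were grown as spheroids with HUVEC endothelial cells and human MSCs as stroma. Targeted agents were tested alone and with KRAS pathway inhibitors. Doses started at or near clinical Cmax, or 10 microM, descending half-log.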
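Further: viability read after seven days of drug exposure.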

Q: How did the IC50 (second compound 0.1 µM) turn out when `CN(C)C/C=C/C(=O)Nc1cc2c(Nc3ccc(F)c(Cl)c3)ncnc2cc1O[C@H]1CCOC1` + COc1cc2nc(C)nc(NC(C)c3cc(N)cc(C(F)(F)F)c3)c2cc1OC1CCOC1 was run?
A: Its IC50 is over 0.1 µM.

Q: What about the IC50 (second compound 0.316 µM) of the same compound?
A: Its IC50 is over 0.1 µM.

Q: And the IC50 (second compound 1 µM)?
A: Its IC50 is over 0.1 µM.

Q: And the IC50 (second compound 3.16 µM)?
A: Its IC50 is over 0.1 µM.

Q: What about the IC50 (second compound 10 µM) of the same compound?
A: Its IC50 is over 0.1 µM.

Q: And the viability, T/C (second compound 0.1 µM, first compound 0.000316 µM)?
A: The viability, T/C was 91.4%.

Q: And the viability, T/C (second compound 0.1 µM, first compound 0.001 µM)?
A: The viability, T/C was 93.2%.

Q: What about the viability, T/C (second compound 0.1 µM, first compound 0.00316 µM) of the same compound?
A: Its viability, T/C is 74.3%.

Q: What about the viability, T/C (second compound 0.1 µM, first compound 0.01 µM) of the same compound?
A: Its viability, T/C is 79.6%.

Q: What about the viability, T/C (second compound 0.1 µM, first compound 0.0316 µM) of the same compound?
A: The viability, T/C was 86.8%.

Q: And the viability, T/C (second compound 0.1 µM, first compound 0.1 µM)?
A: The viability, T/C was 85%.

Q: What about the viability, T/C (second compound 0.316 µM, first compound 0.000316 µM) of the same compound?
A: Its viability, T/C is 78.4%.

Q: And the viability, T/C (second compound 0.316 µM, first compound 0.001 µM)?
A: Its viability, T/C is 84.8%.

Q: What about the viability, T/C (second compound 0.316 µM, first compound 0.00316 µM) of the same compound?
A: Its viability, T/C is 63.5%.

Q: And the viability, T/C (second compound 0.316 µM, first compound 0.01 µM)?
A: The viability, T/C was 74.5%.

Q: And the viability, T/C (second compound 0.316 µM, first compound 0.0316 µM)?
A: The viability, T/C was 80.4%.

Q: And the viability, T/C (second compound 0.316 µM, first compound 0.1 µM)?
A: The viability, T/C was 61.1%.

Q: What about the viability, T/C (second compound 1 µM, first compound 0.000316 µM) of the same compound?
A: The viability, T/C was 79.8%.

Q: What about the viability, T/C (second compound 1 µM, first compound 0.001 µM) of the same compound?
A: Its viability, T/C is 99.6%.

Q: What about the viability, T/C (second compound 1 µM, first compound 0.00316 µM) of the same compound?
A: The viability, T/C was 82.6%.

Q: What about the viability, T/C (second compound 1 µM, first compound 0.01 µM) of the same compound?
A: The viability, T/C was 69.8%.

Q: What about the viability, T/C (second compound 1 µM, first compound 0.0316 µM) of the same compound?
A: Its viability, T/C is 84.3%.

Q: What about the viability, T/C (second compound 1 µM, first compound 0.1 µM) of the same compound?
A: The viability, T/C was 77.2%.

Q: And the viability, T/C (second compound 3.16 µM, first compound 0.000316 µM)?
A: The viability, T/C was 91.5%.

Q: What about the viability, T/C (second compound 3.16 µM, first compound 0.001 µM) of the same compound?
A: Its viability, T/C is 93.9%.

Q: And the viability, T/C (second compound 3.16 µM, first compound 0.00316 µM)?
A: The viability, T/C was 88.5%.

Q: What about the viability, T/C (second compound 3.16 µM, first compound 0.01 µM) of the same compound?
A: Its viability, T/C is 71.2%.

Q: And the viability, T/C (second compound 3.16 µM, first compound 0.0316 µM)?
A: The viability, T/C was 77.8%.

Q: And the viability, T/C (second compound 3.16 µM, first compound 0.1 µM)?
A: Its viability, T/C is 71.8%.

Q: What about the viability, T/C (second compound 10 µM, first compound 0.000316 µM) of the same compound?
A: Its viability, T/C is 90.2%.

Q: What about the viability, T/C (second compound 10 µM, first compound 0.001 µM) of the same compound?
A: Its viability, T/C is 82.8%.

Q: And the viability, T/C (second compound 10 µM, first compound 0.00316 µM)?
A: The viability, T/C was 86%.

Q: And the viability, T/C (second compound 10 µM, first compound 0.01 µM)?
A: The viability, T/C was 85.4%.

Q: What about the viability, T/C (second compound 10 µM, first compound 0.0316 µM) of the same compound?
A: Its viability, T/C is 91.8%.

Q: And the viability, T/C (second compound 10 µM, first compound 0.1 µM)?
A: The viability, T/C was 72.7%.
